Legend:
[1] = test system: salicylate hydroxylation to 2,3-DHBA; test: 2,3-DHBA assay in blood of high energy diet fed sand rats; assay type: in vivo, sand rat (Psammomis obesus); conditions: 2.5 mg/kg i.p. three times a week
Method: To measure 2,3-DHBA the animals were injected i.p. with 100 mg/kg salicylate in saline buffer. As a product of salicylate hydroxylation, the 2,3-DHBA was quantified using HPLC coupled with electrochemical detection (HPLC-ECD), using a Varian 5000 liquid chromatograph (Varian Analytical Instruments, Walnut Creek, Calif., USA) equipped with a Rheodyne 7125 sample injector (20 μl loop; Rheodyne L. P., Rohnert Park, Calif., USA). The column used for separation of salicylate and DHBA was a 250×4 mm LiChrospher 100RP-18, 5 μm (Merck, Darmstadt, Germany). The chromatograms were recorded using a PC-based data acquisition and processing system (EZChrom Elite, San-Ramon, Calif., USA).
Nineteen sand rats were divided into three groups. Group I (n=4) received a standard diet and was used as a control. Groups II (n=7) and III (n=8) received a high energy diet, leading to diabetes development. Group III was treated with 2.5 mg Zn-DFO i.p. per kg body weight three times a week, while Group II was injected with saline according to the same pattern. After the blood glucose and body weight monitoring for 63 days, glucose tolerance test was performed and blood level of 2,3-DHBA and catechols was also measured. As previously done, cataract formation was tested as well. […] The concentration of actin, Trx and TrxR were measured by Western Blotting, and the activity of Msr was analyzed by HPLC as described.

[2] = test system: high energy diet-induced Type II diabetes; test: Sand rat high energy diet Type II diabetes model, glucose tolerance test and cataract formation (Example 6); assay type: in vivo, sand rat (Psammomis obesus)
Source text: Sand rats (Psammomis Obesus) were used as a model for Type 2 diabetes. The sand rats transferred onto high energy diet develop a severe form of Type 2 diabetes, including high blood glucose level, increase in body weight, and cataract development (eye lens opacification).
The sand rats were divided into groups. The animals from the Group I received the standard diet, serving as a control, whereas animals from the other indicated groups received high energy diet, leading to diabetes development. The high-energy diet ed mice were either untreated, or treated with intra-peritoneal injections of 2.5 mg/kg body weight Ga-DFO, Zn-DFO, DFO alone, Zn, Ga or lipoic acid (LA), either twice or three times per week, as indicated, for the duration of the experiment. The blood glucose and body weight of the animals were monitored throughout the experiment.
Forty two sand rats were divided into seven groups, six animals in each. The animals from Group I received the standard diet and used as a control. The animals from the Groups II, III, IV, V, VI and VII received high energy diet, leading to diabetes development, while Groups III, IV and VII were treated with Zn-DFO, Ga-DFO and DFO alone, respectively. The Groups V and VI received Zn and Ga, in their chloride salt form, alone respectively. Administration of the different treatments was as described, and the experiment lasted for 53 days. Glucose tolerance test was performed at the end of experiment. The cataract formation was tested as well.

CC(=O)N(O)CCCCCNC(=O)CCC(=O)N([O-])CCCCCNC(=O)CCC(=O)N([O-])CCCCCN.[Zn+2] [Zn-DFO, Zinc-desferrioxamine]
2,3-DHBA blood concentration [1]: maintained almost baseline values
three hours response to an orally-administered glucose dose, value above the zero (standard diet Group I) ([2]; 200 mg glucose per 100 g body weight, end of 53 day experiment, high energy diet): 20 mg/dL
Cataract formation ([2]; high energy diet (HE) sand rats, 53 days): 22%
